# Measured values: ChEMBL document CHEMBL4024791, “Identification of Morpholino-2H-pyrido[3,2-b][1,4]oxazin-3(4H)-ones as Nonsteroidal Mineralocorticoid Antagonists” (J Med Chem, 2018)
# Active and inactive are the calls of the source. The calls are words filed in the database; no cut-off is given here.
# What was measured:
# [1] = Intrinsic clearance in human liver microsomes
# [2] = Distribution coefficient, log D of the compound; assay type: physicochemical; conditions: octanol/water
# [3] = Clearance in rat at 1 mg/kg, iv; conditions: in vivo
# [4] = Intrinsic clearance in rat liver microsomes
# [5] = target: T1, Mineralocorticoid receptor (Homo sapiens, UniProt P08235)
# T1 sequence (P08235 whole entry): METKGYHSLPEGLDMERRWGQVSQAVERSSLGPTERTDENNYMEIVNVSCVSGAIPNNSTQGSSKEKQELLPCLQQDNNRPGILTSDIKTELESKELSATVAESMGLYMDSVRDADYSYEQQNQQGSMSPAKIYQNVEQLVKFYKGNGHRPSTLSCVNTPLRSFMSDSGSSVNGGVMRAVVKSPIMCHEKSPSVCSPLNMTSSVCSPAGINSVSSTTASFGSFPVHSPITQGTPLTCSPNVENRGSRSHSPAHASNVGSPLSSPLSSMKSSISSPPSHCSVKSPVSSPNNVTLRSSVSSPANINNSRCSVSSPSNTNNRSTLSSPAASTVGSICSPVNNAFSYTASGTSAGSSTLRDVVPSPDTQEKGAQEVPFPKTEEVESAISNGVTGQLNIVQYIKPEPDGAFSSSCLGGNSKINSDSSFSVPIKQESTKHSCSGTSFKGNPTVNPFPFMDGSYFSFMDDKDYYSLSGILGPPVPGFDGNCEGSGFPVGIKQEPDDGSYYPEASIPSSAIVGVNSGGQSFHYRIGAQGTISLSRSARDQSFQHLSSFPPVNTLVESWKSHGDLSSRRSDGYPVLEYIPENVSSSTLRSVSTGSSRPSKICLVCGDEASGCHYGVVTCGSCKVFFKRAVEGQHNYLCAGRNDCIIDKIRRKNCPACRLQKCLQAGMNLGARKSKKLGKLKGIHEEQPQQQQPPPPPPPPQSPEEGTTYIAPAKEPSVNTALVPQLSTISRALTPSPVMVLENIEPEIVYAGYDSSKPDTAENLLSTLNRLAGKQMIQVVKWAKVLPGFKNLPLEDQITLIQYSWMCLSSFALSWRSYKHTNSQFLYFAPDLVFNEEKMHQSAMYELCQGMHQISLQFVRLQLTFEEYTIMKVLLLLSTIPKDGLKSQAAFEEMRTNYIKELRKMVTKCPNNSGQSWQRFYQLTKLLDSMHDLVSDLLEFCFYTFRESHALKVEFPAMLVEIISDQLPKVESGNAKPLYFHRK
# Description: Displacement of [3H]-aldosterone from human GST-tagged MR ligand binding domain after 4 hrs by liquid scintillation counting
# [6] = target: T1, Mineralocorticoid receptor; remark: listed apart in the source
# Description: Antagonist activity at human GAL4-DBD fused MR ligand binding domain transfected in human Huh7 cells co-expressing GAL4-RE-Luc assessed as reduction in aldosterone-induced luciferase activity after 16 hrs in presence of serum by luciferase reporter gene assay
# Rattus norvegicus = assay: In vivo antagonist activity at MR in Wistar rat assessed as increase in urinary Na+ /K+ ratio at 100 mg/kg, po administered as single dose measured after 2 to 6 hrs post dose; assay type: functional, organism-based
Compound,microsomal CLint [1],logD [2],clearance [3],microsomal CLint [4],IC50 [5],IC50 [6],inhibition (Rattus norvegicus)
C[C@@H]1CN(c2ccc3c(n2)NC(=O)CO3)[C@H](c2cccc(F)c2)CO1,9.6 µL/min/mg,3.1,,,,,
C[C@@H]1CN(c2ccc3c(c2)NC(=O)CO3)[C@H](c2ccccc2)CO1,15.8 µL/min/mg,3.1,54 mL/min/kg,377 µL/min/mg,13 nM,,
CC1(C)CN(c2ccc3c(n2)NC(=O)CO3)[C@H](c2ccccc2)CO1,15.2 µL/min/mg,3.3,,,86 nM,,
O=C1COc2ccc(N3C[C@@H](CO)OC[C@H]3c3ccccc3)nc2N1,14.8 µL/min/mg,1.8,52 mL/min/kg,44 µL/min/mg,> 10000 nM,10000 nM,
COC(=O)[C@@H]1CC2=CC(=O)CC[C@]2(C)[C@@]23O[C@@H]2C[C@@]2(C)[C@@H](CC[C@@]24CCC(=O)O4)[C@H]13,,,,,,,Active
O=C1COc2ccc(N3CCOC[C@H]3c3ccccc3)nc2N1,8.9 µL/min/mg,2.4,,,1180 nM,,
N#CC[C@@H]1CN(c2ccc3c(n2)NC(=O)CO3)[C@H](c2ccccc2)CO1,11.9 µL/min/mg,2.3,,,56 nM,,
COC[C@@H]1CN(c2ccc3c(n2)NC(=O)CO3)[C@H](c2ccccc2)CO1,8 µL/min/mg,2.5,,,276 nM,358 nM,
C[C@@H]1CN(c2ncc3c(n2)NC(=O)CO3)[C@H](c2ccccc2)CO1,8 µL/min/mg,2.7,95 mL/min/kg,146 µL/min/mg,113 nM,,
C[C@@H]1CN(c2ccc3c(n2)NC(=O)CO3)[C@H](c2ccccc2F)CO1,14 µL/min/mg,3.1,,,13 nM,33 nM,
C[C@@H]1CN(c2cc3c(cn2)OCC(=O)N3)[C@H](c2ccccc2)CO1,12.6 µL/min/mg,2.5,,,109 nM,,
C[C@@H]1CN(c2ccc3c(n2)NC(=O)CO3)[C@H](c2ccc(F)cc2)CO1,8 µL/min/mg,3.2,,,,,
C[C@@H]1CN(c2cnc3c(c2)NC(=O)CO3)[C@H](c2ccccc2)CO1,13.9 µL/min/mg,1.9,,,2220 nM,,
C[C@H]1CN(c2ccc3c(n2)NC(=O)CO3)[C@H](c2ccccc2)CO1,,2.7,,,,,
